Inhibition and IC50 data for 66 compounds are collected here from patent US12617777B2, “GPR84 antagonists and uses thereof” (Liminal BioSciences Limited, priority 2021, dated 2026).

For this experiment, the target named is T1, human GPR84 receptor (Homo sapiens, UniProt Q9NQS5).
T1 construct: host or cells: HEK293, transient transfection
The experiment is described as follows: Gαi biosensor BRET assay in HEK293 cells (antagonism of ZQ-16). It counts as cell-based. The settings on record: for inhibition at 10 µM: HEK293, single concentration 10 μM (designated F); for inhibition at 2 µM: HEK293, single concentration 2 μM (designated A); for IC50: HEK293 cells, antagonism of 200 nmol/L ZQ-16; for inhibition at 25 µM: HEK293, single concentration 25 μM (designated I). The method, boiled down: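 Antagonist mode: test compound 5 min at 37° C, followed by ZQ-16 agonist (200 nmol/L, 5 min, room temperature), in HEK293 cells transfected with GPR84 plus Rluc8-tagged Gαi2, GFP10-Gγ2 and Gβ1. Readout as GFP10/Rluc8 emission ratio after 5 μmol/L coelenterazine 400A, net of Rluc8-only and vehicle signal.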

T1 sequence (Q9NQS5 whole entry): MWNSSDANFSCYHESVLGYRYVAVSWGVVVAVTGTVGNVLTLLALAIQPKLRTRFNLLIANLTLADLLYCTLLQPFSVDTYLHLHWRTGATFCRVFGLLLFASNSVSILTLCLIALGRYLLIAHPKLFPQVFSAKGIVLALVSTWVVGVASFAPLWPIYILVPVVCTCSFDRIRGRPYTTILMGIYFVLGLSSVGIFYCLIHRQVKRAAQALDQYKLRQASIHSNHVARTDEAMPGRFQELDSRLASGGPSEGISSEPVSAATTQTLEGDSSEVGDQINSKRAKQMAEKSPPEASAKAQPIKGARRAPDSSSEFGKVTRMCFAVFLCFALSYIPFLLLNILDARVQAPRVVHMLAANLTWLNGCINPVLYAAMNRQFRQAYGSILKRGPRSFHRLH

For the compound `CC1(C)COC(Cn2cc(-c3ncc(C#CCNC4CC4)cc3OC3CC3)nn2)OC1` [Compound I-856], the inhibition at 10 µM is > 75%.
On to `FC(F)(F)Cc1cc(C#CC2CC2)cnc1-c1cn(C[C@H]2CCCCO2)nn1` [Compound I-822], for which the inhibition at 2 µM is > 75% and the IC50 was ≤ 300 nM.
`Cc1cc(N2CC(CO)C2)ccc1-c1cn(CC2CCCCO2)nn1` (stereo not drawn) [Compound I-471]: the inhibition at 10 µM was > 75%.
Still for that read-out and setting: under `NC(=O)c1cc(C#CC2CC2)ccc1-c1cn(CC2CCCCO2)nn1` (stereo not drawn) [Compound I-234] stands ≤ 25%; under `Cc1cc(C#CC2CC2)cnc1-c1cn(CC2CCOCC2)nn1` [Compound I-196], ≤ 25%.
Same read-out and setting: as for `Cc1cc(N2CCN(C)CC2)ccc1-c1cn(C[C@H]2CCCCO2)nn1` [Compound I-111], the figure is ≤ 25%; as for `Cc1cc(N2CCN(Cc3ccncn3)CC2)ccc1-c1cn(CC2CCCCO2)nn1` (stereo not drawn) [Compound I-565], 50 to 75%.
Turning to `Cc1cc(C#CCn2cc(C3CC3)nn2)cnc1-c1cn(CC2CCCCO2)nn1` (stereo not drawn) [Compound I-732], the inhibition at 10 µM is ≤ 25%.
Regarding `C(#CC1CC1)c1ccc2c(c1)CCc1cnn(CC3CCCCO3)c1-2` (stereo not drawn) [Compound I-329], the inhibition at 10 µM is 25 to 50% and the IC50 was in the range of 300 to 1000 nM.
The matching figures for `CCc1cc(C#CCNc2ccccn2)cnc1-c1cn(C[C@H]2CCCCO2)nn1` [Compound I-658]: > 75% and > 3000 nM.
For `Cc1cc(Cn2cc(-c3ccc(C#CC4CC4)cc3C)nn2)on1` [Compound I-557], the inhibition at 2 µM was ≤ 25%.
For the compound `CN(C)c1cc(C#CCN2CC(C)(C)C2)c(F)cc1-c1cn(CC2OCC3(CCC3)O2)nn1` (stereo not drawn) [Compound I-821], the inhibition at 10 µM is > 75%.
Same read-out and setting: as for `Cc1cc(N2CCN(Cc3cnccn3)CC2)ccc1-c1cn(CC2CCCCO2)nn1` (stereo not drawn) [Compound I-577], the figure is 25 to 50%; as for `CNCc1cc(C#CC2CC2)ccc1-c1cn(CC2CCCCO2)nn1` (stereo not drawn) [Compound I-355], 50 to 75%; as for `Cc1cc(C#CC2CC2)ccc1-c1cn(CC2CC(C)(C)O2)nn1` (stereo not drawn) [Compound I-197], 50 to 75%.
Same read-out and setting: as for `CNC1CN(c2ccc(-c3cn(CC4CCCCO4)nn3)c(C)c2)C1` (stereo not drawn) [Compound I-184], the figure is ≤ 25%.
Take `Cc1ccc(C#CC2CC2)cc1C1(c2cn(CC3OCC(C)(C)CO3)nn2)OCCO1` [Compound I-721]: the inhibition at 2 µM was > 75% and the IC50 is 300 to 1000 nM.
For the compound `Cc1cc(OCc2ccccc2)ccc1-c1cn(CC2CCCCO2)nn1` (stereo not drawn) [Compound I-52], the inhibition at 25 µM is ≤ 25%.
Take `Cc1cc(N2CC3(C2)CN(c2ccccn2)C3)ccc1-c1cn(CC2OCC(C)(C)CO2)nn1` [Compound I-663]: the inhibition at 10 µM is > 75% and the IC50 is > 3000 nM.
With `Cc1cc(N2CCN(CC3CC4CCN3CC4)CC2)ccc1-c1cn(CC2OCC(C)(C)CO2)nn1` (stereo not drawn) [Compound I-661], the inhibition at 10 µM was ≤ 25%.
For the compound `Cc1cc(N2CCN(Cc3ccncc3)CC2)ccc1-c1cn(CC2CCCCO2)nn1` (stereo not drawn) [Compound I-549], the inhibition at 10 µM is 50 to 75% and the IC50 was 1000 to 3000 nM.
As for `C(#CC1CC1)c1ccc(-n2cc(CC3CCOCC3)nn2)cc1` [Compound I-294], the inhibition at 25 µM is ≤ 25%.
Turning to `CC1(C)COC(Cn2cc(-c3ncc(C#CC4CC4)cc3CC(F)(F)F)nn2)OC1` [Compound I-750], the inhibition at 10 µM was > 75% and the IC50 was ≤ 300 nM.
On to `C(#CC1CC1)c1ccc(-c2cn(CCOCC3COCCO3)nn2)cc1` (stereo not drawn) [Compound I-93], for which the inhibition at 10 µM was ≤ 25%.
In the case of `Cc1ccc(-c2ccc(-c3cn(CC4CCCCO4)nn3)c(C)c2)cn1` (stereo not drawn) [Compound I-36], the inhibition at 25 µM fell in the range of 25 to 50% and the IC50 was > 3000 nM.
Take `Cc1cc(N2CCCC23CN(C)C3)ccc1-c1cn(CC2CCCCO2)nn1` (stereo not drawn) [Compound I-151]: the inhibition at 10 µM was ≤ 25%.
The same measure, in the same setting: as for `Cc1cc(C#CCNc2ccccc2)ccc1-c1cn(CCOc2ccccn2)nn1` [Compound I-135], the figure is ≤ 25%.
Still for that read-out and setting: under `CN(C)c1cc(N2CC3(COC3)C2)c(F)cc1-c1cn(CC2OCC(C)(C)CO2)nn1` [Compound I-849] stands > 75%.
Consider `C(#CC1CC1)c1ccc(-c2cn(CC3CCOCC3)nn2)cc1` [Compound I-40], for which the inhibition at 25 µM was in the range of 25 to 50%.
`Cc1cc(N2CC3(CNC3)C2)ccc1-c1cn(CC2CCCCO2)nn1` (stereo not drawn) [Compound I-182]: the inhibition at 10 µM was ≤ 25%.
Still for that read-out and setting: as for `Cc1cc(C#CC2CC2)ccc1-c1cn(CC2CN(C)C(=O)O2)nn1` (stereo not drawn) [Compound I-493], the figure is ≤ 25%; as for `CC(c1cccc(N2CC(C)(C)C2)c1)c1cn(CC2CCCCO2)nn1` (stereo not drawn) [Compound I-536], ≤ 25%.
`CCc1cc(C#CC2CC2)ccc1-c1cn(CC2CCCCO2)nn1` (stereo not drawn) [Compound I-865]: the inhibition at 10 µM was ≤ 25% and the IC50 was in the range of 300 to 1000 nM.
Regarding `Cc1ccc(C#CC2CC2)cc1Cc1cn(CC2CCc3ccccc3O2)nn1` (stereo not drawn) [Compound I-551], the inhibition at 10 µM is 25 to 50%.
As for `CCc1cc(C#CCOC2CC2)ccc1-c1cn(CC2OCC(C)(C)CO2)nn1` [Compound I-780], the inhibition at 10 µM was > 75% and the IC50 was 300 to 1000 nM.
As for `Cc1cc(N2CC(N(C)C)C2)ccc1-c1cn(CC2CCCCO2)nn1` (stereo not drawn) [Compound I-114], the inhibition at 10 µM was ≤ 25%.
On the same count and under the same terms, under `Cc1cc(C#CC2CC2)nnc1-c1cn(CC2CCCCO2)nn1` (stereo not drawn) [Compound I-433] stands ≤ 25%.
On to `CC(=O)c1ccc(C)c(N(C)c2cn(CC3OCC(C)(C)CO3)nn2)c1` [Compound I-825], for which the inhibition at 2 µM was > 75%.
As for `COC(C)Cn1cc(-c2ccc(C#CCNc3ccccc3)cc2C)nn1` (stereo not drawn) [Compound I-162], the inhibition at 10 µM was 25 to 50%.
As to `Clc1ccc(C#CC2CC2)cc1-c1cn(CC2CCCCO2)nn1` (stereo not drawn) [Compound I-134], the inhibition at 10 µM is ≤ 25%.
Consider `Cc1ccc(C#CC2CC2)cc1C(=O)c1cn(CC2CCCCO2)nn1` (stereo not drawn) [Compound I-591], for which the inhibition at 10 µM was > 75% and the IC50 is 300 to 1000 nM.
With `C(#CC1CC1)c1ccc2c(c1)CCn1nc(OC[C@H]3COCCO3)cc1-2` (stereo in doubt) [Compound I-332, 2-((1,4-dioxan-2-yl)methoxy)-8-(cyclopropylethynyl)-5,6-dihydropyrazolo[5,1-a]isoquinoline], the inhibition at 10 µM was ≤ 25%.
In the case of `CN(C)CC#Cc1ccc(-c2cn(CC3CCCCO3)nn2)cc1` (stereo not drawn) [Compound I-47], the inhibition at 25 µM was ≤ 25%.
Take `C(#CC1CC1)c1ccc(-c2cn(CC3CCCCO3)nn2)c(N2CCC2)c1` (stereo not drawn) [Compound I-199]: the inhibition at 10 µM was ≤ 25%.
In the case of `Cc1cc(OC2CN(Cc3ccccn3)C2)ccc1-c1cn(CC2CCCCO2)nn1` (stereo not drawn) [Compound I-514], the inhibition at 2 µM was ≤ 25%.
`CCOCC#Cc1cnc(-c2cn(CC3OCC(C)(C)CO3)nn2)c(OC(C)C)c1` [Compound I-838] came in with an inhibition at 10 µM of 50 to 75%.
On the same count and under the same terms, as for `Cc1cc(N2CCN(Cc3ccccn3)CC2)ccc1-c1cn(CC2OCCCO2)nn1` [Compound I-532], the figure is 25 to 50%.
On to `Cc1cc(C#CC2CC2)ccc1-n1cc(CN2CCOCC2)nn1` [Compound I-297], for which the inhibition at 25 µM was ≤ 25%.
In the case of `CNC1CCN(c2ccc(-c3cn(CC4CCCCO4)nn3)c(C)c2)CC1` (stereo not drawn) [Compound I-128], the inhibition at 10 µM was ≤ 25%.
As for `Cc1cc(C#CC2CC2)ccc1-c1cn(CC2(C)CCCCO2)nn1` (stereo not drawn) [Compound I-554], the inhibition at 2 µM was > 75%.
The same measure, in the same setting: as for `Cc1cc(C#CCN2CC(C)(C)C2)ccc1-c1cn(CC2OCC(F)(F)CO2)nn1` [Compound I-700], the figure is 50 to 75%.
For the compound `CC(=O)N(C)C(C)(C)COc1ccc(-c2cn(CC3CCCCO3)nn2)c(C)c1` (stereo not drawn) [Compound I-290], the inhibition at 10 µM was 25 to 50%.
The same measure, in the same setting: as for `Cc1cc(N2CC3(CCN(C)CC3)C2)ccc1-c1cn(CC2CCCCO2)nn1` (stereo not drawn) [Compound I-155], the figure is ≤ 25%; as for `Cc1cc(N2CC(CF)C2)ccc1-c1cn(CC2CCCCO2)nn1` (stereo not drawn) [Compound I-544], 25 to 50%.
Turning to `CN(C)c1cc(N2CC(CO)(CO)C2)ccc1-c1cn(CC2OCC(C)(C)CO2)nn1` [Compound I-667], the inhibition at 10 µM was > 75% and the IC50 fell in the range of 300 to 1000 nM.
In the case of `Cc1ccc(C#CCNc2ccccc2)cc1-c1cn(CC2CCCCO2)nn1` (stereo not drawn) [Compound I-178], the inhibition at 10 µM is ≤ 25%.
Regarding `Cn1ccc2c(C#CC3CC3)ccc(-c3cn(CC4CCCCO4)nn3)c21` (stereo not drawn) [Compound I-230], the inhibition at 10 µM was ≤ 25%.
`Cc1cc(N2CC3(CCN(Cc4ccccc4)CC3)C2)ccc1-c1cn(CC2CCCCO2)nn1` (stereo not drawn) [Compound I-156] yielded an inhibition at 10 µM of 50 to 75%.
Compound `Cc1cc(N2CCN(Cc3ccccn3)CC2)ccc1-c1cn(CC2OCC(F)(F)CO2)nn1` [Compound I-615] had an inhibition at 10 µM of 50 to 75%.
Same read-out and setting: as for `Cc1ccc(C#CC2CC2)cc1Cc1nnnn1CC1CCCCO1` (stereo not drawn) [Compound I-419], the figure is 25 to 50%.
With `CC(C)c1cc(N2CC(C)(C)C2)cnc1-c1cn(CC2CC(C)(C)O2)nn1` (stereo not drawn) [Compound I-600], the inhibition at 10 µM is > 75% and the IC50 was 1000 to 3000 nM.
For the compound `COc1cc(N2CC(C)(C)C2)ccc1-c1cn(CC2CCCCO2)nn1` (stereo not drawn) [Compound I-279], the inhibition at 10 µM was > 75%.
The same measure, in the same setting: as for `Cc1cc(C#CCNc2ccccc2)ccc1-c1cn(Cc2ccccn2)nn1` [Compound I-137], the figure is ≤ 25%; as for `CC(c1cc(C#CC2CC2)ccn1)c1cn(CC2CCCCO2)nn1` (stereo not drawn) [Compound I-633], 50 to 75%.
As to `CN(C)c1cc(N2CC(C)(CO)C2)c(F)cc1-c1cn(CC2OCC3(CCC3)O2)nn1` (stereo not drawn) [Compound I-786], the inhibition at 10 µM was > 75% and the IC50 lay in the range of 300 to 1000 nM.
As to `OCC#Cc1ccc(-c2cn(CC3OCC4(CCC4)O3)nn2)c(CC(F)(F)F)c1` (stereo not drawn) [Compound I-808], the inhibition at 2 µM was > 75% and the IC50 was in the range of 300 to 1000 nM.
